From publication PMC12053792 (Journal of Peptide Science, 2025)
Entries after “also recorded” stand apart in the source; their conditions may differ.

Tests used:
IFNγ‐secreting T‐cells = experiment: In vivo immunisation, IFNγ ELISpot on splenocytes, HHDII/DR1 mice; design: species or system HHDII/DR1 (HLA‐A2 transgenic) mice
Experimental: Animal experiments were carried out with ethical approval from University of Nottingham ethical review board and under a Home Office approved project license (PP2706800). Mice were dosed with 10 nmol of material in 50 μL at Days 1, 8 and 15 (n = 3). IFNϒ ELISpot assays on splenocytes were conducted on termination at Day 21. General methods for the ELISpot can be found in the Supporting Information. Preparation of media and buffers and steps performed on Days 1 and 2 post‐termination; the ELISpot assays were performed using a laminar flow cabinet and aseptic techniques to ensure the sterility of media, reagents and plates at stages before development of the ELISpot. Development of the ELISpot on Day 4 posttermination was performed on the laboratory bench.
In Vivo Evaluation (ELISpot Assay)
Animal experiments were carried out with ethical approval from University of Nottingham ethical review boards and under a Home Office approved project license (PP2706800). HLA-HHDII/DR1 (HLA-A2.1+/+ HLADR1+/+, Pasteur Institute) transgenic mice knocked out for murine MHC-I and II and expressing chimeric HLA-A2 (HHDII) and human HLA-DR1 or Balb/c mice (Charles River) aged 6-12 weeks were used. Mice were vaccinated with 10 ηmol of each immunogen at each timepoint. Doses were delivered subcutaneously (s.c.) in 50 µl volume on days 1, 8 and 15. No anaesthesia was used for injections. Responses were screened on day 21 after euthanasia by cervical dislocation. Preparation of media and buffers and steps performed on days 1 and 2 of the ELISpot assay were performed using a laminar flow cabinet and aseptic techniques to ensure the sterility of media, reagents and plates at stages before development of the ELISpot. Development of the ELISpot on day 4 can be performed on the […]
The following tables summarise the details of the vaccine candidates and vaccination procedure including (dose time points):
Table S5. Summary of the injection schedule (including dose concentration and number) for Pam2Cys-SK4-NY-ESO-1157-165 (2) candidate using HHDII/DR1 Tg mice. […]

[1] = SAXS and cryo‐TEM (fibril formation); format: physicochemical; settings: 1 wt% aqueous solution
Experimental: Interrogation of the structure of peptide‐adjuvant constructs 2 and 3 was performed using CD spectroscopy as well as modelling studies (PEP‐FOLD). […] Fibril formation by α‐helical peptides is typically observed due to lateral association of coiled‐coils. Here, this may play a role, although lateral interaction of the hydrophobic alkyl chains is likely to be the essential driver for the fibril formation. The fibril core radius 14.0–18.5 Å from SAXS (Table S1) is consistent with the length of an extended Pam lipid chain. […]
windows, with 0.01 mm path length. Spectra were measured using a 0.5 nm step, 1 nm bandwidth and 1 s collection time per step, and a range of 180 to 280 nm. […]
The residue of the calculation was chosen to oscillate around the average, to avoid artifacts in the smoothed curve. CD data, measured in mdeg, was normalized to molar ellipticity using the molar concentration of the sample and the cell path length.
Cryogenic-TEM (Cryo-TEM) Imaging was carried out using a field emission cryo-electron microscope (JEOL JEM-3200FSC), operating at 200 kV. […] The micrographs were recorded using a Gatan Ultrascan 4000 CCD camera. […] Vitrified specimens were prepared using an automated FEI Vitrobot device using Quantifoil 3.5/1 holey carbon copper 200 mesh grids with a hole size of 3.5 µm and […]. […]

Substance: 3: vaccine‐adjuvant construct Pam2Cys‐SK4‐NY‐ESO‐1_157‐165 [compound 3]
- Immune response (in words) (IFNγ‐secreting T‐cells; healthy HLA‐A2 transgenic (HHDII/DR1) mice, 10 nmol in 50 μL s.c., days 1, 8, 15, n = 3, day 21, versus media‐only negative control): specific but weak responses; also recorded: weakly immunogenic; also recorded: shows activity as a self‐adjuvanting vaccine candidate
- ANOVA significance (in words) (IFNγ‐secreting T‐cells; restimulated with NY‐ESO‐1_87‐111 and NY‐ESO‐1_119‐143): not significant
- ANOVA significance (in words) (IFNγ‐secreting T‐cells; restimulated with NY‐ESO‐1_157‐165): significant effect
- Fibril formation [1]: also formed fibrils; also recorded: indicate the formation of fibrils
